# According to US11884670B1, “Pyrido[4′,3′:4,5]pyrrolo[3,2-c][2,7]naphthyridin-10-one compounds as CK2 inhibitors” (KING FAISAL UNIVERSITY, priority 2023, dated 2024):
# Tests used:
# MDA-MB-231 (breast) = test: In vitro cytotoxic activity (MTT) assay, MDA-MB-231; assay type: cell-based; settings: Homo sapiens; MDA-MB-231 (breast) cells, exposed for 96 hours; read-out: IC50, concentration eliciting 50% inhibition of cell proliferation
# Procedure: (§1) Compounds 1-16 were screened for their in vitro cytotoxic activity utilizing a 3-(4,5-dimethyl-thiazol-2-yl)-2,5-diphenyltetrazolium bromide (MTT) assay against selected cancer human cell lines consisting of PC3 (prostate), HCT116 (colon), A375 (melanoma), H1299 (lung), MIAPaCa-2 (pancreas), HL60 (leukemia), MCF7 (breast), MDA-MB-231 (breast) (T. Mosmann, J. Immunol. Meth., 1983, 65, 55-63). The cells were cultured at 37° C. in RMPI1640 medium supplemented with 10% fetal bovine serum, 50 IU/mL penicillin, and 50 μg/mL streptomycin in a 5% CO2 incubator. All cells were sub-cultured 3 times/week by trypsinisation. Viable cells were seeded and allowed to adhere for 12 h before a test drug was added in 96-well plates at an initial density of 1.0×10^5 cells/mL. Tumour cell lines were separately exposed to various concentrations of the tested compounds followed by incubation at a temperature of 37° C. during 96 h inside a medium of fresh RMPI 1640. Cells were subsequently incubated at 37° C. using MTT at 0.5 mg/mL during 4 h. After removal of supernatant, formazan crystals were dissolved in isopropanol and the optical density was measured at 570 nm. CX-4945 was used as a positive control.
# [1] = target: T1, recombinant human CK2 (RRββ-holoenzyme) (Homo sapiens, UniProt P68400); test: CK2 kinase assay (33P-ATP, substrate peptide RRRDDDSDDD); assay type: biochemical; settings: final ATP concentration 15 μM, 10 min at 30° C.; read-out: protein kinase CK2 IC50
# T1 construct: purchased Millipore
# T1 sequence (P68400 whole entry): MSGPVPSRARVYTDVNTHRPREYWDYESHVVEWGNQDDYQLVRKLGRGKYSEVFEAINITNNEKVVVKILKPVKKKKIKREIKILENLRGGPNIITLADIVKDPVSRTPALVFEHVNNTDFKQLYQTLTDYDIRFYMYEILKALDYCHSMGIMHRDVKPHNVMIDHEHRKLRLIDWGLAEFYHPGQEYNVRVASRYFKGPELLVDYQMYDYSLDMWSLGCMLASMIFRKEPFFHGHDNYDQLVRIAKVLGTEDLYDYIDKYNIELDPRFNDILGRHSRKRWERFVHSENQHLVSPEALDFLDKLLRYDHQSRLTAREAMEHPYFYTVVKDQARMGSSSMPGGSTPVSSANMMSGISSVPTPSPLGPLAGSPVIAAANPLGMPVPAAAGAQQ
# T1 sequence (P67870 whole entry partner): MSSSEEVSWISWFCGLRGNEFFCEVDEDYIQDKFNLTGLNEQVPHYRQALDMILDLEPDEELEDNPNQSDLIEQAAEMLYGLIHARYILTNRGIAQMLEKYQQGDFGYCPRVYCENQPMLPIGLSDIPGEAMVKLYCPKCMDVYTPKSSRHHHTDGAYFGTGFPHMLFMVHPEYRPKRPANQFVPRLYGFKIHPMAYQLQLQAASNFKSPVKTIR
# Procedure: CK2 Kinase Assay was conducted using the protocol as described in Pierre F. et al; J. Med. Chem. 2011, 54, 635-654. The tested compounds in aqueous solution were added at a volume of 10 μL to a reaction mixture comprising 10 μL of assay dilution buffer (ADB; 20 mM MOPS, pH 7.2, 25 mM β-glycerol phosphate, 5 mM EGTA, 1 mM sodium orthovanadate, and 1 mM dithiothreitol), 10 μL of substrate peptide (RRRDDDSDDD, dissolved in ADB at a concentration of 1 mM), 10 μL of recombinant human CK2 (RRββ-holoenzyme, 25 ng dissolved in ADB; Millipore). Reactions were initiated by the addition of 10 μL of ATP solution (90% 75 mMMgCl2, 75 μM ATP (final ATP concentration: 15 μM) dissolved in ADB; 10% [γ-33P] ATP (stock 1 mCi/100 μL; 3000 Ci/mmol (Perkin-Elmer) and maintained for 10 min at 30° C. The reactions were quenched with 100 μL of 0.75% phosphoric acid and then transferred to and filtered through a phosphor cellulose filter plate (Millipore). After washing each well five times with 0.75% phosphoric acid, the plate was dried under vacuum for 5 min and, following the addition of 15 μL of scintillation fluid to each well, the residual radioactivity was measured using a Wallac […] counter. The IC50 values were derived from eight concentrations of test inhibitors.
# PC3 (prostate) = test: In vitro cytotoxic activity (MTT) assay, PC3; assay type: cell-based; settings: Homo sapiens, Prostate cell; PC3 (prostate) cells, exposed for 96 hours; read-out: IC50, concentration eliciting 50% inhibition of cell proliferation
# Procedure: as §1
# HCT116 (colon) = test: In vitro cytotoxic activity (MTT) assay, HCT116; assay type: cell-based; settings: Homo sapiens, HCT-116; HCT116 (colon) cells, exposed for 96 hours; read-out: IC50, concentration eliciting 50% inhibition of cell proliferation
# Procedure: as §1
# A375 (melanoma) = test: In vitro cytotoxic activity (MTT) assay, A375; assay type: cell-based; settings: Homo sapiens, A-375; A375 (melanoma) cells, exposed for 96 hours; read-out: IC50, concentration eliciting 50% inhibition of cell proliferation
# Procedure: as §1
# HL60 (leukemia) = test: In vitro cytotoxic activity (MTT) assay, HL60; assay type: cell-based; settings: Homo sapiens, HL-60; HL60 (leukemia) cells, exposed for 96 hours; read-out: IC50, concentration eliciting 50% inhibition of cell proliferation
# Procedure: as §1
# MIAPaCa-2 (pancreas) = test: In vitro cytotoxic activity (MTT) assay, MIAPaCa-2; assay type: cell-based; settings: Homo sapiens, MIA PaCa-2; MIAPaCa-2 (pancreas) cells, exposed for 96 hours; read-out: IC50, concentration eliciting 50% inhibition of cell proliferation
# Procedure: as §1
# MCF7 (breast) = test: In vitro cytotoxic activity (MTT) assay, MCF7; assay type: cell-based; settings: Homo sapiens; MCF7 (breast) cells, exposed for 96 hours; read-out: IC50, concentration eliciting 50% inhibition of cell proliferation
# Procedure: as §1
# H1299 (lung) = test: In vitro cytotoxic activity (MTT) assay, H1299; assay type: cell-based; settings: Homo sapiens, NCI-H1299; H1299 (lung) cells, exposed for 96 hours; read-out: IC50, concentration eliciting 50% inhibition of cell proliferation
# Procedure: as §1
smiles,measurement,setting,value
"O=c1[nH]ccc2c1[nH]c1c3ccncc3c(Nc3cccc(Cl)c3)nc21 [Compound 1, 5-((3-chlorophenyl)amino)-9,11-dihydro-10H-pyrido[4′,3′:4,5]pyrrolo[3,2-c][2,7]naphthyridin-10-one]",IC50,MDA-MB-231 (breast),4.8 µM
same,IC50,[1],0.038 µM
same,IC50,PC3 (prostate),2.1 µM
same,IC50,HCT116 (colon),1.9 µM
same,IC50,A375 (melanoma),3.3 µM
same,IC50,HL60 (leukemia),3.4 µM
same,IC50,MIAPaCa-2 (pancreas),1.7 µM
same,IC50,MCF7 (breast),6.2 µM
same,IC50,H1299 (lung),1 µM
